Test results: ChEMBL document CHEMBL1201862, “PubChem BioAssay data set” (2004)
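Five concentrations, 48 hours, 96-well plates. The concentration for 50% growth inhibition is given as GI50.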 The source made the active and inactive calls. Cut-off read from the data, not from the text of the source: active = GI50 up to about 1.1 µM and inactive = higher.

How the values were obtained:
Test in all cases: NCI anticancer screen, dose series, 48 h
[1] = system: BT-549
[2] = system: CAKI-1
[3] = system: COLO 205
[4] = system: HCC 2998
[5] = system: HCT-15
[6] = system: Hs-578T
[7] = system: K562
[8] = system: LOX IMVI
[9] = system: MCF7
[10] = system: NCI-H226
[11] = system: OVCAR-3
[12] = system: OVCAR-8
[13] = system: PC-3
[14] = system: RPMI-8226
[15] = system: SF-268
[16] = system: SK-MEL-28
[17] = system: SK-MEL-2
[18] = system: SW-620
[19] = system: T47D
[20] = system: U-251

## CCSCCCC(=O)O
[1]
  GI50: > 100 µM (inactive)
[2]
  GI50: > 100 µM (inactive)
[3]
  GI50: > 100 µM (inactive)
[4]
  GI50: > 100 µM (inactive)
[5]
  GI50: > 100 µM
[6]
  GI50: > 100 µM (inactive)
[7]
  GI50: > 100 µM (inactive)
[8]
  GI50: > 100 µM (inactive)
[9]
  GI50: > 100 µM (inactive)
[10]
  GI50: > 100 µM (inactive)
[11]
  GI50: > 100 µM (inactive)
[12]
  GI50: > 100 µM (inactive)
[13]
  GI50: > 100 µM (inactive)
[14]
  GI50: > 100 µM (inactive)
[15]
  GI50: > 100 µM (inactive)
[16]
  GI50: > 100 µM (inactive)
[17]
  GI50: > 100 µM (inactive)
[18]
  GI50: > 100 µM (inactive)
[19]
  GI50: > 100 µM (inactive)
[20]
  GI50: > 100 µM (inactive)

## CN1CCN(CCCN)CC1
[1]
  GI50: > 100 µM (inactive)
[2]
  GI50: > 100 µM (inactive)
[3]
  GI50: > 100 µM (inactive)
[5]
  GI50: > 100 µM
[6]
  GI50: > 100 µM (inactive)
[7]
  GI50: > 100 µM (inactive)
[8]
  GI50: > 100 µM (inactive)
[9]
  GI50: > 100 µM (inactive)
[10]
  GI50: > 100 µM (inactive)
[11]
  GI50: > 100 µM (inactive)
[12]
  GI50: > 100 µM (inactive)
[13]
  GI50: > 100 µM (inactive)
[14]
  GI50: > 100 µM (inactive)
[15]
  GI50: > 100 µM (inactive)
[16]
  GI50: > 100 µM (inactive)
[17]
  GI50: > 100 µM (inactive)
[18]
  GI50: > 100 µM (inactive)
[19]
  GI50: > 100 µM (inactive)
[20]
  GI50: > 100 µM (inactive)

## c1ccc2c3c(c(N4CCOCC4)nc2c1)CCCC3
[1]
  GI50: 39.7 µM (inactive)
[2]
  GI50: 64.7 µM (inactive)
[3]
  GI50: 20 µM (inactive)
[4]
  GI50: 32.4 µM (inactive)
[5]
  GI50: 35.3 µM
[6]
  GI50: 76.6 µM (inactive)
[7]
  GI50: 49.8 µM (inactive)
[8]
  GI50: 39.9 µM (inactive)
[9]
  GI50: 29.5 µM (inactive)
[10]
  GI50: 19.6 µM (inactive)
[11]
  GI50: 36.6 µM (inactive)
[12]
  GI50: 57.5 µM (inactive)
[13]
  GI50: 36.6 µM (inactive)
[15]
  GI50: 66.5 µM (inactive)
[16]
  GI50: 85.1 µM (inactive)
[17]
  GI50: 42.8 µM (inactive)
[18]
  GI50: 43.8 µM (inactive)
[19]
  GI50: 16 µM (inactive)
[20]
  GI50: 36.6 µM (inactive)

## COc1ccccc1NC(=O)C(C#N)=C(SC)SC
[1]
  GI50: > 100 µM (inactive)
[2]
  GI50: 61 µM (inactive)
[3]
  GI50: > 100 µM (inactive)
[4]
  GI50: > 100 µM (inactive)
[5]
  GI50: > 100 µM
[6]
  GI50: > 100 µM (inactive)
[7]
  GI50: > 100 µM (inactive)
[8]
  GI50: > 100 µM (inactive)
[9]
  GI50: > 100 µM (inactive)
[10]
  GI50: > 100 µM (inactive)
[11]
  GI50: > 100 µM (inactive)
[13]
  GI50: > 100 µM (inactive)
[14]
  GI50: > 100 µM (inactive)
[15]
  GI50: > 100 µM (inactive)
[16]
  GI50: > 100 µM (inactive)
[17]
  GI50: > 100 µM (inactive)
[18]
  GI50: > 100 µM (inactive)
[19]
  GI50: 30.2 µM (inactive)
[20]
  GI50: > 100 µM (inactive)

## COc1ccc(-c2c(N)n(-c3cccc(C(=O)O)c3)c(=O)c3cc([N+](=O)[O-])ccc23)cc1
[1]
  GI50: > 100 µM (inactive)
[2]
  GI50: > 100 µM (inactive)
[4]
  GI50: > 100 µM (inactive)
[5]
  GI50: > 100 µM
[6]
  GI50: > 100 µM (inactive)
[7]
  GI50: > 100 µM (inactive)
[8]
  GI50: > 100 µM (inactive)
[9]
  GI50: > 100 µM (inactive)
[10]
  GI50: > 100 µM (inactive)
[11]
  GI50: > 100 µM (inactive)
[12]
  GI50: > 100 µM (inactive)
[13]
  GI50: > 100 µM (inactive)
[14]
  GI50: > 100 µM (inactive)
[15]
  GI50: > 100 µM (inactive)
[16]
  GI50: > 100 µM (inactive)
[17]
  GI50: > 100 µM (inactive)
[18]
  GI50: > 100 µM (inactive)
[19]
  GI50: > 100 µM (inactive)
[20]
  GI50: > 100 µM (inactive)

## O=C(O)CNn1c(SCC(=O)O)nnc(/C=C/c2c(O)ccc3ccccc23)c1=O
[1]
  GI50: 15 µM (inactive)
[2]
  GI50: 29.5 µM (inactive)
[3]
  GI50: 34.4 µM (inactive)
[4]
  GI50: > 100 µM (inactive)
[5]
  GI50: 17.6 µM
[6]
  GI50: 12.8 µM (inactive)
[7]
  GI50: 25.5 µM (inactive)
[8]
  GI50: 7.5 µM (inactive)
[9]
  GI50: 24 µM (inactive)
[11]
  GI50: 22.7 µM (inactive)
[12]
  GI50: 3.79 µM (inactive)
[13]
  GI50: 77.3 µM (inactive)
[14]
  GI50: 29.8 µM (inactive)
[15]
  GI50: 24.4 µM (inactive)
[16]
  GI50: 34.3 µM (inactive)
[17]
  GI50: 61.8 µM (inactive)
[18]
  GI50: 44.9 µM (inactive)
[19]
  GI50: 19.5 µM (inactive)
[20]
  GI50: 35.3 µM (inactive)

## O=C(O)CC[N+]1=CCC(c2ccccc2)(c2ccccc2)O1
[1]
  GI50: > 100 µM (inactive)
[2]
  GI50: > 100 µM (inactive)
[3]
  GI50: > 100 µM (inactive)
[4]
  GI50: > 100 µM (inactive)
[5]
  GI50: > 100 µM
[6]
  GI50: > 100 µM (inactive)
[7]
  GI50: > 100 µM (inactive)
[9]
  GI50: > 100 µM (inactive)
[10]
  GI50: > 100 µM (inactive)
[11]
  GI50: > 100 µM (inactive)
[12]
  GI50: > 100 µM (inactive)
[13]
  GI50: > 100 µM (inactive)
[15]
  GI50: > 100 µM (inactive)
[16]
  GI50: > 100 µM (inactive)
[17]
  GI50: > 100 µM (inactive)
[18]
  GI50: > 100 µM (inactive)
[19]
  GI50: > 100 µM (inactive)
[20]
  GI50: > 100 µM (inactive)
